Assay results: US20260265249A1, “PHARMACEUTICALLY ACCEPTABLE SALT AND CRYSTAL FORM OF 1,4-DIHYDRO-1,6-NAPHTHYRIDINE AMIDE COMPOUND AND PREPARATION METHOD THEREFOR” (JIANGSU HENGRUI PHARMACEUTICALS CO., LTD., priority 2023, published 2026)

What was measured:
Format in all cases: physicochemical
[1] = DVS (dynamic vapor sorption) hygroscopicity test
Source text: According to the description of hygroscopicity characteristics and the definitions of hygroscopic weight gains in “General Rule 9103, Guidelines for Hygroscopicity” in the Chinese Pharmacopoeia, Volume IV, 2015 Edition, • deliquescent: sufficient water is absorbed to form a liquid; • extremely hygroscopic: the hygroscopic weight gain is not less than 15%; • hygroscopic: the hygroscopic weight gain is less than 15% but not less than 2%; • slightly hygroscopic: the hygroscopic weight gain is less than 2% but not less than 0.2%; • nonhygroscopic or practically nonhygroscopic: the hygroscopic weight gain is less than 0.2%.
TGA refers to thermogravimetric analysis: The analysis was performed using a METTLER TOLEDO TGA 2 thermogravimetric analyzer, with a temperature ramp rate of 10° C./min, specific temperature ranges shown in corresponding patterns (mostly 30-350° C.), and a nitrogen purge speed of 50 mL/min. DVS refers to dynamic vapor sorption: The analysis was performed using SMS DVS Advantage; at 25° C., the humidity was changed as follows: 50%-95%-0%-95%-50%, in steps of 10% (5% for the last step) (specific humidity ranges are shown in corresponding patterns, and those listed here were used in most cases); the criterion was dm/dt being not greater than 0.002%.

[2] = Influencing factor stability study (open containers; light, high temperature, high humidity; 30 days)
[3] = Long-term/accelerated stability study (sealed in aluminum foil bags, 25° C./60% RH and 40° C./75% RH); conditions: for long-term/accelerated stability (conclusion): storage under long-term accelerated conditions for 6 months
[4] = accelerated experimental conditions, 70% RH
[5] = normal storage conditions, 25° C. and 60% RH
[6] = open container, 40° C., 1 month
[7] = open container, 40° C., 14 days
[8] = open container, 60° C., 1 month
[9] = open container, 60° C., 14 days
[10] = open container, 75% RH, 1 month
[11] = open container, 75% RH, 14 days
[12] = open container, 92.5% RH, 1 month
[13] = open container, 92.5% RH, 7 days
[14] = open container, 92.5% RH, 14 days
[15] = open container, light exposure (4500 Lux), 1 month
[16] = open container, light exposure (4500 Lux), 7 days
[17] = open container, light exposure (4500 Lux), 14 days
[18] = 25° C.-60% RH, sealed aluminum foil bag, 1 month
[19] = 25° C.-60% RH, sealed aluminum foil bag, 2 months
[20] = 25° C.-60% RH, sealed aluminum foil bag, 3 months
[21] = 25° C.-60% RH, sealed aluminum foil bag, 6 months
[22] = 40° C.-75% RH, sealed aluminum foil bag, 1 month
[23] = 40° C.-75% RH, sealed aluminum foil bag, 2 months
[24] = 40° C.-75% RH, sealed aluminum foil bag, 3 months
[25] = 40° C.-75% RH, sealed aluminum foil bag, 6 months
[26] = sealed aluminum foil bag, 25° C.-60% RH, 1 month
[27] = sealed aluminum foil bag, 25° C.-60% RH, 2 months
[28] = sealed aluminum foil bag, 25° C.-60% RH, 3 months
[29] = sealed aluminum foil bag, 25° C.-60% RH, 6 months
[30] = sealed aluminum foil bag, 40° C.-75% RH, 1 month
[31] = sealed aluminum foil bag, 40° C.-75% RH, 2 months
[32] = sealed aluminum foil bag, 40° C.-75% RH, 3 months
[33] = sealed aluminum foil bag, 40° C.-75% RH, 6 months

O=S(=O)(O)O.[2H]C([2H])([2H])Oc1cc(C#N)ccc1[C@@H]1C(C(N)=O)=C(C)Nc2c(C)cnc(OCC)c21 [crystal form a of sulfate]
did not change: crystal form re-identified after the DVS test [1]
99.4%: Purity ([2]; open container, 40° C., 7 days)
about 1.9%: hygroscopic weight gain [1, 4]
99.7%: Purity ([2]; 0 days) | Purity [2, 10] | Purity ([2]; open container, 75% RH, 7 days) | Purity [2, 12] | Purity [2, 14] | Purity (%) ([3]; 0 days (initial)) | Purity (%) [3, 18] | Purity (%) [3, 19] | Purity (%) [3, 21] | Purity (%) [3, 23]
99.6%: Purity [2, 11] | Purity [2, 13] | Purity (%) [3, 22] | Purity (%) [3, 24] | Purity (%) [3, 25]
98.8%: Purity [2, 7]
Crystal form a of sulfate: Crystal form ([2]; 0 days)
about 3.1%: hygroscopic weight gain ([1]; extreme conditions, 90% RH)
98.1%: Purity [2, 15]
99.8%: Purity (%) [3, 20]
98.5%: Purity [2, 6]
No change: Crystal form [2, 6] | Crystal form ([2]; open container, 40° C., 7 days) | Crystal form [2, 7] | Crystal form [2, 8] | Crystal form ([2]; open container, 60° C., 7 days) | Crystal form [2, 9] | Crystal form [2, 10] | Crystal form ([2]; open container, 75% RH, 7 days) | Crystal form [2, 11] | Crystal form [2, 12] | Crystal form [2, 13] | Crystal form [2, 14] | Crystal form [2, 15] | Crystal form [2, 16] | Crystal form [2, 17] | Crystal form [3, 18] | Crystal form [3, 19] | Crystal form [3, 20] | Crystal form [3, 21] | Crystal form [3, 22] | Crystal form [3, 23] | Crystal form [3, 24] | Crystal form [3, 25]
98.7%: Purity [2, 9]
about 1.6%: hygroscopic weight gain [1, 5]
97.9%: Purity [2, 8]
98.9%: Purity [2, 17]
good physical and chemical stability: long-term/accelerated stability (conclusion) [3]
99.2%: Purity ([2]; open container, 60° C., 7 days) | Purity [2, 16]

[2H]C([2H])([2H])Oc1cc(C#N)ccc1[C@@H]1C(C(N)=O)=C(C)Nc2c(C)cnc(OCC)c21 [crystal form A]
stable: stability in the influencing factor experiment (conclusion) ([2]; under other conditions (40° C., 60° C., 75% RH, 92.5% RH))
about 0.7%: hygroscopic weight gain [1, 4]
99.7%: Purity ([2]; 0 days) | Purity ([2]; open container, 60° C., 7 days) | Purity [2, 10] | Purity [2, 11] | Purity [2, 12] | Purity [2, 14] | Purity ([3]; 0 days) | Purity [3, 26] | Purity [3, 27] | Purity [3, 28] | Purity [3, 29] | Purity [3, 30]
No change: Crystal form [2, 6] | Crystal form ([2]; open container, 40° C., 7 days) | Crystal form [2, 7] | Crystal form [2, 8] | Crystal form ([2]; open container, 60° C., 7 days) | Crystal form [2, 9] | Crystal form [2, 10] | Crystal form ([2]; open container, 75% RH, 7 days) | Crystal form [2, 11] | Crystal form [2, 12] | Crystal form [2, 13] | Crystal form [2, 14] | Crystal form [2, 15] | Crystal form [2, 16] | Crystal form [2, 17] | Crystal form [3, 26] | Crystal form [3, 27] | Crystal form [3, 28] | Crystal form [3, 29] | Crystal form [3, 30] | Crystal form [3, 31] | Crystal form [3, 32] | Crystal form [3, 33]
97.6%: Purity [2, 15]
99.4%: Purity [2, 6] | Purity [2, 8] | Purity [2, 16]
about 1.5%: hygroscopic weight gain ([1]; extreme conditions, 90% RH)
did not change: crystal form re-identified after the DVS test [1]
Crystal form A: Crystal form ([2]; 0 days) | Crystal form ([3]; 0 days)
about 0.5%: hygroscopic weight gain [1, 5]
99.1%: Purity [2, 17]
degraded: stability in the influencing factor experiment (conclusion) ([2]; under the light exposure condition)
good physical and chemical stability: long-term/accelerated stability (conclusion) [3]
99.5%: Purity [3, 33]
99.6%: Purity ([2]; open container, 40° C., 7 days) | Purity [2, 7] | Purity [2, 9] | Purity ([2]; open container, 75% RH, 7 days) | Purity [2, 13] | Purity [3, 31] | Purity [3, 32]
